The text below walks through data of patent publication US5843968A, “Symmetrical bis-heteroarylmethoxy-phenylalkyl carboxylates as inhibitors of leukotriene biosynthesis” (Abbott Laboratories, priority 1997, dated 1998).

Structures can show the parent of a compound that is named as a salt. Where two headings read alike, the source gives them in different places.

The test system of one assay is 5-Lipoxygenase. Kind of assay: Inhibition of calcium ionophore-induced LTB4 formation in human polymorphonuclear leukocytes (PMNL), in vitro. Conditions: 15 min preincubation, calcium ionophore stimulation 10 min at 37° C., LTB4 by enzyme-linked immunoassay or HPLC, read-out: IC50, In Vitro Inhibitory Potencies Against 5-Lipoxygenase From Stimulated LTB4 Formation in Human Polymorphonuclear Leukocytes. It counts as cell-based. As for the experimental part: Inhibition of leukotriene biosynthesis was evaluated in vitro using an assay involving calcium ionophore-induced LTB4 expressed in human polymorphornuclear leukocytes (PMNL). Human PMNL isolated from heparinized (20 USP units/mL) venous blood (25 mL) obtained from healthy volunteers was layered over an equal volume of Ficoll-Hypaque Mono-Poly Resolving Medium (ICN Flow, Costa Mesa, Calif.) and centrifugated at 400×g for 40 minutes at 20° C. The PMNL was collected, erythrocytes lysed and washed 2× and suspended at 1.0×10^7 cells/mL in Earle's balanced salt solution with 17 mM Earle's HEPES. Aliquots of the cell suspension were preincubated with test compounds dissolved in DMSO (final concentration <2%) for 15 minutes and stimulated with calcium ionophore (final concentration 8.3, μM) for 10 minutes at 37° C. Incubations were stopped with the addition of two volumes of ice-cold methanol followed by centrifuging the cell suspensions at 4° C. for 10 minutes at ~450×g. The amount of LTB4 in the methanol extract was analyzed by enzyme-linked immunoassay or by HPLC analysis.

The test system of another assay is leukotriene biosynthesis. The assay is described as follows: Inhibition of leukotriene biosynthesis in vivo, Ionophore-Induced Rat Pleural Inflammation Model. Conditions: 0.5 h, male rats, dosed in 0.2% methocel one hour prior to intrapleural A23187, lavage 30 min later, enzyme immunoassay. The procedure:
Inhibition of leukotriene biosynthesis in vivo was evaluated using the Ionophore […]-Induced Rat Plueral Inflammation Model. […] Rats were dosed with experimental compounds in 0.2% methocel one hour prior to the intrapleural injection of the calcium ionophore, A23187. The rats where lightly anesthetized with Pentrane (Abbott Laboratories) and injected intrapleurally with 0.5 ml of 2% ethanol in injectable saline (Abbott Laboratories) containing 20 μg of A23187 (Cal BioChem-Novabiochem). Thirty minutes later the animals were euthanised and the pleural cavities lavaged with ice cold saline (Abbott Laboratories). The lavage fluid was then added to ice cold methanol (final methanol concentration 30%) to lyse cells and precipitate protein. Eicosanoids were determined by enzyme immunoassay by standard methods.

As a reminder, the IC50 is the midpoint of a concentration-inhibition curve. In general, inhibition in vivo refers to the change of the read-out against control, counted positive when it falls. Low values mean a response near the control, high ones a response far below the control.

With `CC(CCC(=O)O)(c1ccc(OCc2ccc3ccccc3n2)cc1)c1ccc(OCc2ccc3ccccc3n2)cc1` [Example 1, 4,4-bis(4-(2-quinolylmethoxy)phenyl)pentanoic acid], the IC50 in the assay on 5-Lipoxygenase came to 40 nM.

For the molecule `CC(CCC(=O)O)(c1ccc(OCc2ccc3ccccc3n2)cc1)c1ccc(OCc2ccc3ccccc3n2)cc1` [Example 2, 4,4-bis(4-(2-quinolylmethoxy)phenyl)pentanoic acid sodium salt], the IC50 in the assay on 5-Lipoxygenase (sodium salt) was found to be 69 nM. The molecule also returned an inhibition in vivo at 3 mg/kg in the assay with leukotriene biosynthesis of 53%.

On to `CC(CCCON=CC(=O)O)(c1ccc(OCc2ccc3ccccc3n2)cc1)c1ccc(OCc2ccc3ccccc3n2)cc1` [Example 5, [4,4-bis(4-(2-quinolylmethoxy)phenyl)pent-1-yl]iminoxyacetic acid], for which the IC50 in the assay with 5-Lipoxygenase turned out to be 30 nM.

For `CC(=NOCCCC(C)(c1ccc(OCc2ccc3ccccc3n2)cc1)c1ccc(OCc2ccc3ccccc3n2)cc1)C(=O)O` [Example 6, [4,4-bis(4-(2-quinolylmethoxy)phenyl)pent-1-yl]-2-iminoxypropionic acid], the half-inhibitory concentration (IC50) in the assay on 5-Lipoxygenase was 35 nM.

Regarding `CC(CCC=NOCC(=O)O)(c1ccc(OCc2ccc3ccccc3n2)cc1)c1ccc(OCc2ccc3ccccc3n2)cc1` [Example 7], the IC50 in the assay with 5-Lipoxygenase was 40 nM.

In the case of `CC(CCC(=O)O)(c1ccc(OCc2nc3ccccc3s2)cc1)c1ccc(OCc2nc3ccccc3s2)cc1` [Example 8, 4,4-bis(4-(2-benzothiazoylmethoxy)phenyl)pentanoic acid], the IC50 in the assay on 5-Lipoxygenase stood at 46 nM.

Regarding `CC(CCC(=O)O)(c1ccc(OCc2nc3ccccc3s2)cc1)c1ccc(OCc2nc3ccccc3s2)cc1` [Example 9, 4,4bis(4-(2-benzothiazoylmethoxy)phenyl)pentanoic acid sodium salt], the half-inhibitory concentration (IC50) with 5-Lipoxygenase (sodium salt) was determined as 50 nM.

Take `CC(CCC(=O)O)(c1ccc(OCc2ccc3cc(F)ccc3n2)cc1)c1ccc(OCc2ccc3cc(F)ccc3n2)cc1` [Example 11, 4,4-bis(4-(6-fluoro-2-quinolylmethoxy)phenyl)pentanoic acid sodium salt]: the IC50 with 5-Lipoxygenase is 40 nM. Moreover, the inhibition in vivo at 3 mg/kg in the assay on leukotriene biosynthesis came out at 42%.

Turning to `CC(C(=O)O)(c1ccc(OCc2ccc3ccccc3n2)cc1)c1ccc(OCc2ccc3ccccc3n2)cc1` [Example 12, 2,2-bis(4-(2-quinolylmethoxy)phenyl)propionic acid], the concentration for half-maximal inhibition (IC50) with 5-Lipoxygenase was found to be 32 nM.

As for `CC(CCCC(=O)O)(c1ccc(OCc2ccc3ccccc3n2)cc1)c1ccc(OCc2ccc3ccccc3n2)cc1` [Example 14, 5,5-bis(4-(2-quinolylmethoxy)phenyl)hexanoic acid], the IC50 in the assay with 5-Lipoxygenase is 43 nM. The molecule also showed an inhibition in vivo at 3 mg/kg in the assay with leukotriene biosynthesis of 32%.

As to `CC(CCC(=O)O)(c1ccc(OCc2ccc3ccccc3n2)c(Cl)c1)c1ccc(OCc2ccc3ccccc3n2)c(Cl)c1` [Example 20, 4,4-bis(3-chloro-4-(2-quinolylmethoxy)phenyl)pentanoic acid], the IC50 with 5-Lipoxygenase came out at 26 nM.

Take `CCC(C(=O)O)(c1ccc(OCc2ccc3ccccc3n2)cc1)c1ccc(OCc2ccc3ccccc3n2)cc1` [Example 24, 2,2-bis(4-(2-quinolylmethoxy)phenyl)butyric acid]: in the assay on leukotriene biosynthesis, the inhibition in vivo at 3 mg/kg was found to be 38%.

Consider `CC(O)(c1ccc(OCc2ccc3ccccc3n2)cc1)c1ccc(OCc2ccc3ccccc3n2)cc1` [Example 25, 1,1-bis(4-(2-quinolylmethoxy)phenyl)ethanol], for which the IC50 with 5-Lipoxygenase was 50 nM.

With `CC(C)(C(=O)O)C(c1ccc(OCc2ccc3ccccc3n2)cc1)c1ccc(OCc2ccc3ccccc3n2)cc1` [Example 26, 2,2-dimethyl-3,3-bis(4-(2-quinolylmethoxy)phenyl)propionic acid sodium salt], in the assay on 5-Lipoxygenase, the 50% inhibitory concentration (IC50) was 80 nM. In addition, testing at 3 mg/kg in the assay on leukotriene biosynthesis gave an inhibition in vivo of 50%.

For `CC(C)(C=NOCC(=O)O)C(c1ccc(OCc2ccc3ccccc3n2)cc1)c1ccc(OCc2ccc3ccccc3n2)cc1` [Example 27, sodium salt], in the assay on 5-Lipoxygenase, the IC50 is 28 nM. The inhibition in vivo at 3 mg/kg with leukotriene biosynthesis was 42%.

For the molecule `CC(C)(CON=CC(=O)O)C(c1ccc(OCc2ccc3ccccc3n2)cc1)c1ccc(OCc2ccc3ccccc3n2)cc1` [Example 28, 2,2-dimethyl-3,3-bis(4-(2-quinolylmethoxy)phenyl)-1-propyliminoxyacetic acid], the IC50 in the assay on 5-Lipoxygenase was 34 nM.

For `O=C(O)C(c1ccc(OCc2ccc3cc(F)ccc3n2)cc1)c1ccc(OCc2ccc3cc(F)ccc3n2)cc1` [Example 30, 2,2-bis(4-(6-fluoro-2-quinolymethoxy)phenyl)acetic acid], the IC50 in the assay on 5-Lipoxygenase is 50 nM.

As to `O=C(O)CON=CC(c1ccc(OCc2ccc3ccccc3n2)cc1)c1ccc(OCc2ccc3ccccc3n2)cc1` [Example 31, 2,2-bis(4-(2-quinolylmethoxy)phenyl)eth-1-yloximinoacetic acid], in the assay on 5-Lipoxygenase, the IC50 was found to be 35 nM.

For the molecule `O=C(O)CC(c1ccc(OCc2ccc3ccccc3n2)cc1)c1ccc(OCc2ccc3ccccc3n2)cc1` [Example 34, 3,3-bis(4-(2-quinolylmethoxy)phenyl)propionic acid sodium salt], in the assay with 5-Lipoxygenase, the IC50 amounted to 70 nM. In the assay on leukotriene biosynthesis, this molecule gave an inhibition in vivo at 3 mg/kg of 30%.

Take `CC(=NOCCC(C)(c1ccc(OCc2ccc3ccccc3n2)cc1)c1ccc(OCc2ccc3ccccc3n2)cc1)C(=O)O` [Example 36, [3,3-bis-(2-quinolylmethoxyphenyl)but-1-yl]-2-iminoxypropionic acid]: in the assay on 5-Lipoxygenase, the IC50 turned out to be 25 nM.

Regarding `CC(=NOCCC#CC(O)(c1ccc(OCc2ccc3ccccc3n2)cc1)c1ccc(OCc2ccc3ccccc3n2)cc1)C(=O)O` [Example 38, [5,5-bis(4-(2-quinolylmethoxy)phenyl)-5-hydroxy-3-pentyn-1-yl]-2-iminoxypropionic acid sodium salt], the IC50 with 5-Lipoxygenase turned out to be 60 nM. For the same molecule, at 3 mg/kg the inhibition in vivo with leukotriene biosynthesis was 40%.
